Experiments:
Assay type in all cases: biochemical
MMP2 = molecular target: T1, MMP2 (Homo sapiens, UniProt P08253); test: MMP2 inhibition assay in analogy to HNC (MMP8) assay; conditions: activated MMP2; other concentrations than MMP8 assay
T1 sequence (P08253 110-660): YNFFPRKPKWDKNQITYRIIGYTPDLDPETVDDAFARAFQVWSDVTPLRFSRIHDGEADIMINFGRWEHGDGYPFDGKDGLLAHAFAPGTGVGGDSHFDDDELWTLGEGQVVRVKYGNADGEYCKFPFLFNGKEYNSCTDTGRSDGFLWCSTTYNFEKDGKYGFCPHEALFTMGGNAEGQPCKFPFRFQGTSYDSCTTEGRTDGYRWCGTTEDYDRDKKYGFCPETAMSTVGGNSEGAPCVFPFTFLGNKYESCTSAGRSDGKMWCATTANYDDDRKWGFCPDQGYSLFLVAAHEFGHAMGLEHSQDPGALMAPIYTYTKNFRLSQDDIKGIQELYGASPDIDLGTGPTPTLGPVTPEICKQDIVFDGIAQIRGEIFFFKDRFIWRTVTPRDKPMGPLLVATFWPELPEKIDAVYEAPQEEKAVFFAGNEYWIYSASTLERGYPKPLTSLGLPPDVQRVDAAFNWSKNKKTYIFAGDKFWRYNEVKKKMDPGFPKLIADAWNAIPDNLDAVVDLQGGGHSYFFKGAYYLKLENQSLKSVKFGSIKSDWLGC

MMP1 = molecular target: T2, MMP1 (Homo sapiens, UniProt P03956); test: MMP1 inhibition assay in analogy to HNC (MMP8) assay; conditions: for inhibition at 0.2 µM: inhibitor at 200 nM, activated MMP1
T2 sequence (P03956 100-469): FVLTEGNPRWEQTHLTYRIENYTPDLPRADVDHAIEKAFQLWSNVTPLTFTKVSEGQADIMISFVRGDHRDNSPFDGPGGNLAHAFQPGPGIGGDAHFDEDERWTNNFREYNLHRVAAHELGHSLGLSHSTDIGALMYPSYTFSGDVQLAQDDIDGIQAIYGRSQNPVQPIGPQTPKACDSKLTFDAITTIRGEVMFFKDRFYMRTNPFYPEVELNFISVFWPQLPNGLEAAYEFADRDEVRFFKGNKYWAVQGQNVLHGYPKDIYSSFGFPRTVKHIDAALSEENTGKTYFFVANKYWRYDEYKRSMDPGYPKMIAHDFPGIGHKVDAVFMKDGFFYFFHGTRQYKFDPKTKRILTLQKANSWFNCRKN
Description: In order to determine the inhibitory potential of compounds of the general formula I on MMPs such as HNC, the catalytic domain is incubated (isolation and purification see Schnierer, S., Kleine, T., Gote, T., Hillemann, A., Knäuper, V., Tschesche, H., Biochem. Biophys. Res. Commun. (1993), 191, 319-326). Subsequently the initial reaction rate of a standard substrate is measured as described in Grams F. et al., FEBS 335 (1993) 76-80). The results are evaluated in the usual manner (see e.g. Dixon, M., Biochem. J. (1953) 55, 170-202).
The synthetic collagenase substrate is a heptapeptide coupled C-terminally with dinitrophenol (DNP). This DNP residue quenches the fluorescence of the Trp of the heptapeptide. After cleavage of a tripeptide containing the DNP residue, the measurable fluorescence increases.
A solution of enzyme and inhibitor is prepared in assay buffer at 25° C. The reaction is started by addition of the substrate to the solution. The cleavage of the fluorogenic substrate is measured by fluorescence spectroscopy (excitation and emission wavelength at 280 and 350 nm respectively). The IC50 value is determined for an inhibitor concentration at which the reaction rate is halved.
An activation is additionally necessary for MMP2 and MMP1.

[1] = molecular target: T3, catalytic domain (Met80-Gly242) of the human neutrophilic collagenase (MMP8) (Homo sapiens, UniProt P22894); test: MMP8 (HNC) catalytic domain fluorogenic substrate inhibition assay; conditions: 8 nM catalytic domain, 10 μM DNP-heptapeptide substrate, 25° C., pH 7.6
T3 construct: catalytic domain (Met80-Gly242) of the human neutrophilic collagenase (MMP8); made in house
T3 sequence (P22894 100-262): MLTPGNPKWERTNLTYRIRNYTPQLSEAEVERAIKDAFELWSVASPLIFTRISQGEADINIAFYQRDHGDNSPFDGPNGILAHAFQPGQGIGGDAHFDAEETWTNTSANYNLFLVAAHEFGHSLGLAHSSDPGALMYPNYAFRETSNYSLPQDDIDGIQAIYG
Description: 50 mM Tris/HCl pH 7.6 (Tris=Tris-(hydroxymethyl)-aminomethane)
100 mM NaCl/10 mM CaCl2/5% MeOH (if required)
8 nM catalytic domain (Met80-Gly242) of the human neutrophilic collagenase (MMP8)

| IC50 (MMP2) [nM] | inhibition of MMP1 compared with Marimastat (in words) (MMP1) | inhibition at 0.2 µM (MMP1) [%] | IC50 [1] [nM] | Structure (SMILES) | selectivity relative to MMP1 (in words) (MMP1; compared with Marimastat, MMP2/MMP8 versus MMP1) |
| --- | --- | --- | --- | --- | --- |
| 23 | substantially poorer than by Marimastat | 20 | 18 | CNC(=O)[C@@H](NC(=O)C(c1ccc(-c2ccccc2)cc1)C(O)C(=O)NO)C(C)(C)C (mixture of isomers) [example 1.5, 2-Biphenyl-4-yl-N1-((1S)-2,2-dimethyl-1-methyl-carbamoyl-propyl)-3,N4-dihydroxy-succinamide] | clear selectivity advantage relative to MMP1 |
|  |  | 100 |  | CNC(=O)[C@@H](NC(=O)[C@H](CC(C)C)[C@H](O)C(=O)NO)C(C)(C)C [Marimastat, N2-[3S-hydroxy-4-(N-hydroxyamino)-2R-isobutyl-succinyl)-L-tert-leucine-N1-methylamide, reference compound] |  |

From patent US6576628B1, “3-aryl-succinamido-hydroxamic acids, methods for producing said acids and medicaments containing the same” (Roche Diagnostics GmbH, priority 1997, dated 2003)
